Reference: US6150414A, “Compositions and methods for treating viral infections” (priority 1992, dated 2000)
Values joined by “and” are separate entries in the source; they are usually repeats but may differ in a detail not shown here. Equal entries are not always repeated.

How the values were obtained:
[1] = molecular target: T1, Radiation Leukemia Virus reverse transcriptase (Radiation murine leukemia virus, UniProt P11227); assay: Radiation Leukemia Virus reverse transcriptase assay, supernatants from infected AQR cells (Examples 4 and 9); type: biochemical; details: Table VI; for CPM: replicate, listed as Hy
T1 construct: the reverse transcriptase of Radiation Leukemia Virus; endogenous in cells
Outline: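 Supernatants from AQR cells chronically infected with RadLV were incubated 30 min on ice with the test compound (hypericin, protohypericin or HHA). Virus was pelleted at 100,000×g for 1 h at 4 °C, and the pellet was assayed for reverse transcriptase activity.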

[2] = Antiviral activity of hypericin as a function of frequency of treatment in mouse studies; type: in vivo
Excerpt: The present inventors have also discovered that the antiviral activity of hypericin is a function of the frequency of treatment. […] While the foregoing observations in mice may not be applicable to other mammals or humans, those skilled in the art will appreciate that the frequency of treatment is subject to optimization, which can be determined by routine experimentation according to methods well known in the art, e.g. by establishing a matrix of dosage and frequency and assigning a group of experimental subjects to each point of the matrix. Design of this experiment should preferably also take into account the tissue accumulation properties of PAC compounds.

Friend Leukemia Virus [3] = assay: Inhibition of Friend Leukemia Virus-induced splenomegaly in mice, compounds intraperitoneally 24 hours after virus (Example 1(a)); type: in vivo, BALB/c mice; details: dose 150 mg (so in the source); Table III second set
Outline: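 BALB/c mice inoculated i.v. with 10^6 FFU Friend virus (spleen homogenate); compounds given i.p. 24 h later at 100 μg once, or 50, 100, 200 μg or 2×100 μg (second dose 24–48 h after first), two mice per group. Spleens weighed at day 10; percent inhibition from average spleen weights relative to negative and positive controls.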

retroviruses = assay: Comparison over two in vitro and one in vivo biological assays (Example 10); details: Example 10
Outline: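 In vitro direct inactivation of retroviruses was tested alongside in vivo inhibition of Friend Leukemia Virus splenomegaly in mice. For the in vivo test, compounds were given intravenously 1-2 hours post infection.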

Friend Leukemia Virus [4] = assay: In vivo inhibition of Friend Leukemia Virus splenomegaly, intravenous 1-2 hours post infection (Example 10); design: species or system mice; details: Mus musculus, read-out: EC50 for FV-induced splenomegaly
Procedure: (3) In vivo inhibition of Friend Leukemia Virus Splenomegaly performed as described in Example 1 above except that the compounds were administered intravenously 1-2 hours post infection.
The results presented above in Table IX are presented as EC50 concentrations. These are the effective concentrations which inhibit 50% of the viruses in micromolar concentrations.

**Q.** What does the source list for `Cc1cc(O)c2c(=O)c3c(O)cc(O)c4c5c(O)cc(O)c6c(=O)c7c(O)cc(C)c8c1c2c(c34)c(c78)c65` [hypericin, Hypericin]?
**A.** Average CPM ([1]; 0.4 micrograms): 2,489 CPM; Average percent inhibition ([1]; 0.4 micrograms): 99.4%; CPM ([1]; 0.4 micrograms): 1,700 CPM and 3,278 CPM; Average CPM ([1]; 2 micrograms): 9,986 CPM; Average percent inhibition ([1]; 2 micrograms): 97.8%; CPM ([1]; 2 micrograms): 14,474 CPM and 5,498 CPM; Average CPM ([1]; 10 micrograms): 11,588 CPM; Average percent inhibition ([1]; 10 micrograms): 97.4%; CPM ([1]; 10 micrograms): 9,288 CPM and 13,888 CPM; Average CPM ([1]; 50 micrograms): 31,818 CPM; Average percent inhibition ([1]; 50 micrograms): 92.9%; CPM ([1]; 50 micrograms): 33,948 CPM and 29,688 CPM; Average CPM ([1]; 100 micrograms): 31,347 CPM; Average percent inhibition ([1]; 100 micrograms): 93.0%; CPM ([1]; 100 micrograms): 28,946 CPM and 33,748 CPM; antiviral activity vs frequency of treatment ([2]; 10 micrograms every day for ten days): less effective than even a single 10-microgram dose; antiviral activity vs frequency of treatment ([2]; 10 micrograms once a week): as effective as the single 10-microgram dose; antiviral activity vs dose ([2]; single dose of ten micrograms per mouse): less effective than a single dose of 100 micrograms per mouse; Average Spleen Weight (Friend Leukemia Virus [3]): 0.7707; activity across assays (retroviruses): high degree of activity in a more than one assay; EC50 (Friend Leukemia Virus [4]): 120 nM
